From ChEMBL document CHEMBL4376834, “Discovery of 4H-Chromen-4-one Derivatives as a New Class of Selective Rho Kinase (ROCK) Inhibitors, which Showed Potent Activity in ex Vivo Diabetic Retinopathy Models” (J Med Chem, 2019)

Columns and labels:
[1] = target: Epidermal growth factor receptor (Homo sapiens, UniProt P00533); test: Inhibition of recombinant human EGFR (696 to end residues) using poly(Glu, Tyr) 4:1 as substrate after 40 mins in presence of [gamma-33ATP] by radiometric scintillation counting analysis
[2] = target: Cyclin-dependent kinase 1/cyclin B1 (Homo sapiens, UniProt P06493); test: Inhibition of recombinant full length human CDK1/CyclinB using Histone H1 as substrate incubated for 40 mins in presence of [gamma-33ATP] by radiometric scintillation counting analysis; assay type: protein-complex assay
[3] = Inhibition of recombinant human MAPKAPK2 A399G mutant (46 to end residues) using KKLNRTLSVA as substrate incubated for 40 mins in presence of [gamma-33ATP by radiometric scintillation counting analysis
CDC7/Cyclin B1 = CDC7/Cyclin B1 (Homo sapiens, UniProt O00311+P14635); test: Inhibition of recombinant full length human CDC7/CyclinB1 using Histone H1 as substrate incubated for 120 mins in presence of [gamma-33ATP] by radiometric scintillation counting analysis; assay type: protein-complex assay
[4] = target: Serine/threonine-protein kinase TAO3 (Homo sapiens, UniProt Q9H2K8); test: Inhibition of recombinant human TAO3 N47S mutant (1 to 411 residues) using myelin basic protein as substrate incubated for 40 mins in presence of [gamma33P]ATP by radiometric scintillation counting analysis
Chain of Serine/threonine-protein kinase TAO3 (Q9H2K8 whole entry, the tested form may be a part, canonical isoform): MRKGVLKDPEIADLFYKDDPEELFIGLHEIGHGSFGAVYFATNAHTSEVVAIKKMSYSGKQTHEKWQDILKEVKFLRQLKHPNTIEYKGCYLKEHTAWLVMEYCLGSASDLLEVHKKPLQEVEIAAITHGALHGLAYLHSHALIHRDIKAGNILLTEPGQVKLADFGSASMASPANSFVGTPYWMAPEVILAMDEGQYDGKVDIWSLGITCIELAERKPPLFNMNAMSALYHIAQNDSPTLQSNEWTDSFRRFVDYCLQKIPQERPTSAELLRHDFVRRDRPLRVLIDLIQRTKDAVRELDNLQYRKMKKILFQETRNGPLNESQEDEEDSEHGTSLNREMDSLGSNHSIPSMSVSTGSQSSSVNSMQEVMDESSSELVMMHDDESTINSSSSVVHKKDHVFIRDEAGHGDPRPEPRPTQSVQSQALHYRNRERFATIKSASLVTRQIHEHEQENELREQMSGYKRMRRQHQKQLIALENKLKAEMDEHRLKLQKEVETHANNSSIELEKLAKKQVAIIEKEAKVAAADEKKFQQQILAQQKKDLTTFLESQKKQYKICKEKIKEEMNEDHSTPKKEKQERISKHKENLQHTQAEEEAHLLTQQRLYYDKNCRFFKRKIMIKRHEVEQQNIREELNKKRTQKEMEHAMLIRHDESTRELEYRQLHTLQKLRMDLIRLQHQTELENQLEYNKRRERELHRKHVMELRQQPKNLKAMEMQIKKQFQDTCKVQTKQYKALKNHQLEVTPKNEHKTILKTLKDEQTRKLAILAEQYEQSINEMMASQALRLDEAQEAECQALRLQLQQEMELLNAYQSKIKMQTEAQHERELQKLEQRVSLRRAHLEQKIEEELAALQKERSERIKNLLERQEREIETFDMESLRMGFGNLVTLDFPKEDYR

[5] = target: Casein kinase I isoform gamma-2 (Homo sapiens, UniProt P78368); test: Inhibition of recombinant human CK1gamma2 (18 to end residues) using KRRRALS(p)VAS as substrate incubated for 40 mins in presence of [gamma-33ATP] by radiometric scintillation counting analysis
[6] = target: Dual specificity protein kinase TTK (Homo sapiens, UniProt P33981, S389A); test: Inhibition of recombinant full-length human TTK S389A mutant using MBP as substrate incubated for 40 mins in presence of [gamma33P]ATP by radiometric scintillation counting analysis
[7] = target: Cyclin-dependent kinase-like 2 (Homo sapiens, UniProt Q92772); test: Inhibition of recombinant full length human CDKL2 in presence of 10 uM ATP by radiometric scintillation counting analysis
Ephrin type-B receptor 4 = Ephrin type-B receptor 4 (Homo sapiens, UniProt P54760); test: Inhibition of recombinant human EphB4 (561 to end residues) using poly(Glu, Tyr) 4:1 as substrate after 40 mins in presence of [gamma-33ATP] by radiometric scintillation counting analysis
Chain of Ephrin type-B receptor 4 (P54760 whole entry): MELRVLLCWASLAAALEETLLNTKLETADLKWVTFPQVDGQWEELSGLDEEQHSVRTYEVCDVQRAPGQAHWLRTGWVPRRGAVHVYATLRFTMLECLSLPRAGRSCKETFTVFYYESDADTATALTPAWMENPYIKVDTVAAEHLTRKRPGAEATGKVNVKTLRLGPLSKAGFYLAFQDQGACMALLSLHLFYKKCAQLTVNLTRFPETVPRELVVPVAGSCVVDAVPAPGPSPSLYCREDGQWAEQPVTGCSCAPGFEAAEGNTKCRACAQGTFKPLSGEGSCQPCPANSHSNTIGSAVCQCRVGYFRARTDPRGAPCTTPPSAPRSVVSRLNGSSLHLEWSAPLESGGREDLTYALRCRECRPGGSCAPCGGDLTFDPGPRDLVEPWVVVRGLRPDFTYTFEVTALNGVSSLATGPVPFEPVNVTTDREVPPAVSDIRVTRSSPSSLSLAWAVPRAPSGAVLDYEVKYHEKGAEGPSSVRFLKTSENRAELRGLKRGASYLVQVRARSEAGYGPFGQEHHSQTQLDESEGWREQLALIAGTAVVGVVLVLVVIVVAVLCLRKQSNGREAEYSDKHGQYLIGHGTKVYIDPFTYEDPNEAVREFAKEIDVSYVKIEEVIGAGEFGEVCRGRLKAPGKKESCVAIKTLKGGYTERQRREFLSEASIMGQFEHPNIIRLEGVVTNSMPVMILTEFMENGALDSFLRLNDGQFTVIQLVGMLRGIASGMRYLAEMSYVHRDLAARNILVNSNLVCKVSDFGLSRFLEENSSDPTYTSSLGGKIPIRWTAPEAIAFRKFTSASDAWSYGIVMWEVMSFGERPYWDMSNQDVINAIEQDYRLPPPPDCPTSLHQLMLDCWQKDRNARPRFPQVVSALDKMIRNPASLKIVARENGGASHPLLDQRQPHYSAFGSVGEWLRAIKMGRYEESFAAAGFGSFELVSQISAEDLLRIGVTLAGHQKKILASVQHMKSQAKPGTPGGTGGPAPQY

[8] = target: Dual specificity mitogen-activated protein kinase kinase 1 (Homo sapiens, UniProt Q02750); test: Inhibition of recombinant full length human MEK1 using inactive MAPK2 as substrate incubated for 40 mins in presence of [gamma-33ATP by radiometric scintillation counting analysis
[9] = target: Dual specificity protein kinase CLK1 (Homo sapiens, UniProt P49759); test: Inhibition of recombinant human CLK1 (130 to end residues) using ERMRPRKRQGSVR as substrate incubated 40 mins in presence of [gamma-33ATP] by radiometric scintillation counting analysis
[10] = target: Fibroblast growth factor receptor 1 (Homo sapiens, UniProt P11362); test: Inhibition of recombinant human FGFR1 (456 to 765 residues) using KKKSPGEYVNIEF as substrate after 40 mins in presence of [gamma-33ATP] by radiometric scintillation counting analysis
[11] = target: Serine-protein kinase ATM (Homo sapiens, UniProt Q13315); test: Inhibition of recombinant full-length human ATM using GST-cMyc-p53 as substrate measured after 40 mins by ELISA
[12] = target: Mitogen-activated protein kinase kinase kinase kinase 3 (Homo sapiens, UniProt Q8IVH8); test: Inhibition of recombinant human MAP4K3 (1 to 291 residues) using RLGRDKYKTLRQI as substrate incubated for 40 mins in presence of [gamma-33ATP by radiometric scintillation counting analysis
[13] = target: Serine/threonine-protein kinase pim-2 (Homo sapiens, UniProt Q9P1W9); test: Inhibition of recombinant human Pim2 (2 to end residues) using RSRHSSYPAGT as substrate incubated for 40 mins in presence of [gamma33P]ATP by radiometric scintillation counting analysis
[14] = Inhibition of human MAPK2
[15] = target: Serine/threonine-protein kinase MRCK alpha (Homo sapiens, UniProt Q5VT25); test: Inhibition of recombinant human MRCKalpha (1 to 473 residues) using KKRNRTLTV as substrate incubated for 40 mins in presence of [gamma-33ATP by radiometric scintillation counting analysis
Aurora kinase C = Aurora kinase C (Homo sapiens, UniProt Q9UQB9); test: Inhibition of human recombinant AURORA-C (35 to end residues) using AKRRRLSSLRA as substrate incubated for 40 mins in presence of [gamma-33ATP] by radiometric scintillation counting analysis
Chain of Aurora kinase C (Q9UQB9 whole entry): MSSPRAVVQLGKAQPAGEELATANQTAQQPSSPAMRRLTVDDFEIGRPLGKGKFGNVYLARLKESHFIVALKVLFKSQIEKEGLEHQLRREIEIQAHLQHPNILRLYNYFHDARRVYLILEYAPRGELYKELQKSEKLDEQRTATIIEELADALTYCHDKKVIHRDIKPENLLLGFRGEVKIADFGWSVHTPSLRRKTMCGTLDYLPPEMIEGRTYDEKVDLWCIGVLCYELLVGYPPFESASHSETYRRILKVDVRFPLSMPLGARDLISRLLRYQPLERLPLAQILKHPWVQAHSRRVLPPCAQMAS

[16] = target: Mitogen-activated protein kinase 14 (Homo sapiens, UniProt Q16539); test: Inhibition of recombinant human full length SAPK2a using myelin basic protein as substrate incubated for 40 mins in presence of [gamma33P]ATP by radiometric scintillation counting analysis
Chain of Mitogen-activated protein kinase 14 (Q16539 whole entry): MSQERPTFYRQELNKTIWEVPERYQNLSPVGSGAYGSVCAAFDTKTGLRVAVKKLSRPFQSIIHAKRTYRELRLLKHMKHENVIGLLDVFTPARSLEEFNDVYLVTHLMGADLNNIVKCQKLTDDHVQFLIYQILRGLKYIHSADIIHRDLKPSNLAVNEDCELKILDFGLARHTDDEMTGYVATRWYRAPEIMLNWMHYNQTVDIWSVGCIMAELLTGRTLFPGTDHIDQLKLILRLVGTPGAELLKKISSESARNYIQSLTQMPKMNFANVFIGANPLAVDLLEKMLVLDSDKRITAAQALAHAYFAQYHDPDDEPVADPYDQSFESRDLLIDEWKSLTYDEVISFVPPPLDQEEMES

[17] = target: Serine/threonine-protein kinase Nek4 (Homo sapiens, UniProt P51957, P225A); test: Inhibition of recombinant full-length human NEK4 P225A mutant using myelin basic protein as substrate measured after 40 mins in presence of [gamma33P]ATP by radiometric scintillation counting analysis
[18] = target: Serine/threonine-protein kinase BRSK2 (Homo sapiens, UniProt Q8IWQ3); test: Inhibition of recombinant human BRSK2 (2 to end residues) using KKLNRTLSFAEPG substrate incubated for 40 mins in presence of [gamma-33ATP] by radiometric scintillation counting analysis
Chain of Serine/threonine-protein kinase BRSK2 (Q8IWQ3 whole entry): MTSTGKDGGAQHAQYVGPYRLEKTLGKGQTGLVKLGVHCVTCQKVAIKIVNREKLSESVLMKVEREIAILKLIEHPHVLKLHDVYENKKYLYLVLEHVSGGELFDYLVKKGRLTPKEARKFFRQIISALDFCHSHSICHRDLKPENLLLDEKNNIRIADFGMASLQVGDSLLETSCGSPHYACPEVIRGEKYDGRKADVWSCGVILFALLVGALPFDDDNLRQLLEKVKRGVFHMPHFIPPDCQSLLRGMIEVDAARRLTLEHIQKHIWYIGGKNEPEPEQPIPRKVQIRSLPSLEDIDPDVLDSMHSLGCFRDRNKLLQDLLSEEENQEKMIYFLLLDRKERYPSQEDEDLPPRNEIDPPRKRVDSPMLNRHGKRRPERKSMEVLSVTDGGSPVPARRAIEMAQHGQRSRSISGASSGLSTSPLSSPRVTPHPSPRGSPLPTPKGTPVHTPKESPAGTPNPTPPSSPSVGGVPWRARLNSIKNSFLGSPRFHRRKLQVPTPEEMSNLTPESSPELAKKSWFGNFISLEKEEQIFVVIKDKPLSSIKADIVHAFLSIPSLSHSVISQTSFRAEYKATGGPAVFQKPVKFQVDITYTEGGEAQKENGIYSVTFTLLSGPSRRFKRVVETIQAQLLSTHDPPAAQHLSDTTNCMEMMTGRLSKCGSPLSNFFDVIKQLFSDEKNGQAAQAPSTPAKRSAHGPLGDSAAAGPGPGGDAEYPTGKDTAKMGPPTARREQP

[19] = target: Serine/threonine-protein kinase Sgk1 (Homo sapiens, UniProt O00141, S422D); test: Inhibition of recombinant human SGK S422D mutant (60 to end residues) using GRPRTSSFAEGKK as substrate incubated for 40 mins in presence of [gamma33P]ATP by radiometric scintillation counting analysis
Chain of Serine/threonine-protein kinase Sgk1 (O00141 whole entry S422D): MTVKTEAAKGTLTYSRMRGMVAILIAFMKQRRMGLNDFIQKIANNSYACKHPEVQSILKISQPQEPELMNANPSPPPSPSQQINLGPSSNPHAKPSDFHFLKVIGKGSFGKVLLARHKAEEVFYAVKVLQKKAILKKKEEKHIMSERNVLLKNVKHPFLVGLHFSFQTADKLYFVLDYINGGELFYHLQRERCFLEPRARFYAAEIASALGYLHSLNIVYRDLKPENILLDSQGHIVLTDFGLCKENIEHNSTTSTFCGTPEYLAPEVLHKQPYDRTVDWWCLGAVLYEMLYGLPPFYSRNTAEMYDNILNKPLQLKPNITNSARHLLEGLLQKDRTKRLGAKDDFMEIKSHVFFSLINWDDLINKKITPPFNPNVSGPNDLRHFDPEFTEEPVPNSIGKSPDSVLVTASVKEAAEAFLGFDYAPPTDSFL

[20] = target: Calcium/calmodulin-dependent protein kinase type IV (Homo sapiens, UniProt Q16566); test: Inhibition of recombinant full length human CaMK4 using calmodulin as substrate incubated for 40 mins in presence of [gamma-33ATP] by radiometric scintillation counting analysis
Ephrin type-A receptor 5 = Ephrin type-A receptor 5 (Homo sapiens, UniProt P54756); test: Inhibition of recombinant human EphA5 (655 to 956 residues) using poly(Glu, Tyr) 4:1 as substrate measured after 40 mins in presence of [gamma33ATP] by radiometric scintillation counting analysis
[21] = target: Serine/threonine-protein kinase Sgk2 (Homo sapiens, UniProt Q9HBY8, S416D); test: Inhibition of recombinant human SGK2 S416D mutant (54 to end residues) using GRPRTSSFAEGKK as substrate incubated for 40 mins in presence of [gamma33P]ATP by radiometric scintillation counting analysis
Chain of Serine/threonine-protein kinase Sgk2 (Q9HBY8 as listed by the source S416D): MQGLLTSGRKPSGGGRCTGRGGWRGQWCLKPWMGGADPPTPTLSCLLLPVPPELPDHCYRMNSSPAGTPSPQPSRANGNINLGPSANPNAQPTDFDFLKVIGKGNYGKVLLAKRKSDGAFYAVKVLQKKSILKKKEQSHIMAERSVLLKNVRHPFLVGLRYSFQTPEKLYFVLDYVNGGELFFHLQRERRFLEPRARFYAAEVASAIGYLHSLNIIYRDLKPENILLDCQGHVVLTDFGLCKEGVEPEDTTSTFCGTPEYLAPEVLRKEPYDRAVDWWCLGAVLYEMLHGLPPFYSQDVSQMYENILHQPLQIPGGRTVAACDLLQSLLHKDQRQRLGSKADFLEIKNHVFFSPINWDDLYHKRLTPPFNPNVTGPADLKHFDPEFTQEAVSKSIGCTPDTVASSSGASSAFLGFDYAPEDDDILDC

[22] = target: Mitogen-activated protein kinase kinase kinase 7 (Homo sapiens, UniProt O43318); test: Inhibition of recombinant human TAK1 (1 to 303 residues) using casein as substrate incubated for 40 mins in presence of [gamma33P]ATP by radiometric scintillation counting analysis
Chain of Mitogen-activated protein kinase kinase kinase 7 (O43318 whole entry, the tested form may be a part): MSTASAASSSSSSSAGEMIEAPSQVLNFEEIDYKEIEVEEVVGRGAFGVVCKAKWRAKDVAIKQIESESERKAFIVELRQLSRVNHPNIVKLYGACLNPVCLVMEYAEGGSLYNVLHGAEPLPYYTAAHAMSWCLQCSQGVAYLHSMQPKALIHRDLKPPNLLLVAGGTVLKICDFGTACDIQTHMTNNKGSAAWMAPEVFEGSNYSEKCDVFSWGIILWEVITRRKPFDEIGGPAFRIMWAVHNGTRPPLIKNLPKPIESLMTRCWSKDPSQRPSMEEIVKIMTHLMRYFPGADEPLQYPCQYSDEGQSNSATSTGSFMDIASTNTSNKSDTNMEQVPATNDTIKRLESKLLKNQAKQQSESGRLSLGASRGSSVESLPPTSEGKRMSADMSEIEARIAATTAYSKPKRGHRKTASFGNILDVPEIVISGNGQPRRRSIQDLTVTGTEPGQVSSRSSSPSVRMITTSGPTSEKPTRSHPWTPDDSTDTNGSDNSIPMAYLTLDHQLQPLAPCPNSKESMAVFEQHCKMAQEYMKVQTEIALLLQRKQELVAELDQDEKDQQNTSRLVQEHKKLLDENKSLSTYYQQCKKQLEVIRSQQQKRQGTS

Measured: IC50

CN(C)c1ccc(C(=O)Nc2cccc(NC(=O)COc3ccc4c(=O)ccoc4c3)c2)cc1
> 10 µM: all assays above
